The test system of one data set is CHO-ALPP cells. Nature of the data set: In vitro cell viability (Cell Titre Glo, 96 h), CHO-ALPP. Format: cell-based. The conditions noted are these: cell-killing. How it is done: (§1) CHO-ALPP isoform stable transfectants were generated using CHO-K1 cells (CCL-61) provided by the American Type Culture Collection (ATCC). Grown in ATCC-formulated F-12K medium+10% FCS.
(§2) In vitro cell viability assays for cancer cells treated with anti ALPP/ALPPL2 drug conjugates Cells were seeded in the appropriate complete growth media, as described above, into white, clear bottom 96 well plates (Costar) and incubated at 37° C., 5% C02 for 24 hours. On the following day, dilution series were set up for each test agent at ×10 working stocks. The dose response X10 stock was e.g.: 10000, 5000, 1000, 500, 100, 50, 10, 5, 1, 0.5 nM etc. […] Plates were allowed to sit for a further 10 minutes at room temperature prior to measuring luminescence read-out using a Clariostar plate-reader (BMG). Data was analysed by calculating the average for untreated (vehicle only) control wells and determining the % of control for each treated well. % of control data was then plotted against Log [Treatment] concentration and the IC50 value derived using non-linear regression fitting in GraphPad Prism software. […]
(§3) Cell Titre Glo assays were performed as described in Example 5. Cells were incubated with VHH-hFc-drug conjugates and h12F3 drug conjugates at 37° C., 5% CO2 for 96 hours and the % of cell viability determined as a function of dose response. […]

For the next data set, the system named is CHO-ALPPL2 cells. Nature of the data set: In vitro cell viability (Cell Titre Glo, 96 h), CHO-ALPPL2. The format is cell-based. The note with it: cell-killing. How it is done:
as §1, §2, §3

Another data set deals with CHO-ALPI cells. In words: In vitro cell viability (Cell Titre Glo, 96 h), CHO-ALPI. Format: cell-based. The note with it: cell-killing. How it is done:
as §1
as §2, with “etc. 10 μL of the X10 stock solutions were added to the cell plates (90 μl per well) using a multichannel pipette. […] 10 μl of vehicle control (PBS) was added to the control wells (columns 11 and 12). Plates were incubated at 37° C., 5% CO2 for 96 hours.” for “etc.”

Another data set has as its system CHO-ALPL cells. Nature of the data set: In vitro cell viability (Cell Titre Glo, 96 h), CHO-ALPL. The format is cell-based. The note with it: cell-killing. How it is done: as §1
as §2, with “etc. 10 μL of the X10 stock solutions were added to the cell plates (90 μl per well) using a multichannel pipette. […] 10 μl of vehicle control (PBS) was added to the control wells (columns 11 and 12). Plates were incubated at 37° C., 5% CO2 for 96 hours.” for “etc.”

The next data set relates to MKN1 cells. In words: In vitro cell viability (Cell Titre Glo, 96 h), MKN1. The format is cell-based. The conditions noted are these: Table 24. How it is done:
MKN1 cells (RCB1003, Riken BRC). Ref: Cancer Sci 2006; 97:387-394, were provided by the RIKEN BRC through the National BioResource Project of the MEXT, Japan Grown in RPMI1640+10% FCS.
as §2
(§4) Cell Titre Glo assays were performed as described in Example 5. Cells were incubated with biparatopic VHH-hFc-drug conjugates and h12F3 drug conjugate at 37° C., 5% CO2 for 96 hours and the % of cell viability determined as a function of dose response. […]

In the next data set the test system is NCI-H1651 cells. Nature of the data set: In vitro cell viability (Cell Titre Glo, 96 h), NCI-H1651. The format is cell-based. The note with it: Table 24. How it is done:
NCI-H1651 cells, CRL-5884 provided by the American Type Culture Collection (ATCC). Grown in ATCC DMEM:F12 medium+10% FCS plus supplements required to make ACL-4 media as recommended by ATCC.
as §2, §3

In the next data set the test system is NCI-N87 cells. Nature of the data set: In vitro cell viability (Cell Titre Glo, 96 h), NCI-N87. Format: cell-based, human. The conditions noted are these: Table 24. How it is done:
NCI-N87 cells, CRL-5822 provided by the American Type Culture Collection (ATCC). Grown in RPM11640+10% FCS.
as §2, with “etc. 10 μL of the X10 stock solutions were added to the cell plates (90 μl per well) using a multichannel pipette.” for “etc.”
as §4

In the next data set the test system is HeLa cells. In words: In vitro cell viability (Cell Titre Glo, 96 h), HeLa. The note with it: ALPP/ALPPL2 negative cell-line, Table 24. The format is cell-based. How it is done: HeLa cells, CCL-2 provided by the American Type Culture Collection (ATCC). Grown in EMEM+10% FCS
as §2, with “etc. 10 μL of the X10 stock solutions were added to the cell plates (90 μl per well) using a multichannel pipette. […] 10 μl of vehicle control (PBS) was added to the control wells (columns 11 and 12). Plates were incubated at 37° C., 5% CO2 for 96 hours. Promega Cell Titre Glo reagent was used as per the manufacturer's instructions to assess cell viability.” for “etc.”

“And” between values parts separate entries of the source, which are not always exact repeats. Identical values can stand only once. Like-named read-outs stand apart in the source and are kept apart here. Where a SMILES comes first, the peptide text is derived from it. [ ]: non-standard residue; d: D form. The star is where a group is joined. Dolaproine = CO[C@@H]([C@@H]1CCCN1)[C@@H](C)C(=O)O; Dil = CC[C@H](C)[C@H](NC)[C@@H](CC(=O)O)OC; X1 = C[C@@H](N*)[C@@H](O)c1ccccc1; NMeV = CN[C@H](C(=O)O)C(C)C

For `CC[C@H](C)[C@@H]([C@@H](CC(=O)N1CCC[C@H]1[C@H](OC)[C@@H](C)C(=O)N[C@H](C)[C@@H](O)c1ccccc1)OC)N(C)C(=O)[C@@H](NC(=O)[C@@H](NC)C(C)C)C(C)C` [MMAE, monomethylauristatin E] (H-[NMeV]V[Dil][Dolaproine]-X1), the IC50 in the data set on CHO-ALPP cells (Table 18, read-out: IC50 @ 96 h, CHO-ALPP) is 19.1 nM and 19.5 nM; with CHO-ALPP cells (Table 23, read-out: IC50 at 96 h, CHO-ALPP), 19.1 nM and 19.5 nM; in the data set with CHO-ALPPL2 cells (Table 18, read-out: IC50 @ 96 h, CHO-ALPPL2) it was 24.4 nM and 16.6 nM; in the data set with CHO-ALPPL2 cells (Table 23, read-out: IC50 at 96 h, CHO-ALPPL2), 24.4 nM and 15.6 nM; in the data set with CHO-ALPI cells (Table 18, read-out: IC50 @ 96 h, CHO-ALPI), 11.4 nM and 15.9 nM; in the data set on CHO-ALPI cells (Table 23, read-out: IC50 at 96 h, CHO-ALPI), 11.4 nM and 15.9 nM. The concentration for half-maximal inhibition (IC50) is 29.4 nM and 25.8 nM with CHO-ALPL cells (Table 18, read-out: IC50 @ 96 h, CHO-ALPL); 29.4 nM and 25.8 nM with CHO-ALPL cells (Table 23, read-out: IC50 at 96 h, CHO-ALPL); 1.4 nM in the data set on MKN1 cells (cell-killing); 0.8 nM in the data set on NCI-H1651 cells (cell-killing); 0.3 nM in the data set on NCI-N87 cells (cell-killing); 1.8 nM in the data set with HeLa cells (cell-killing). In addition, in the data set on MKN1 cells, the “% viability remaining, MKN1” value is 23.1%. Besides, the “% viability remaining, NCI-H1651” value with NCI-H1651 cells is listed as 28.1%. Moreover, the “% viability remaining, NCI-N87” value in the data set with NCI-N87 cells is listed as 27.9%. The “% viability remaining, HeLa” value in the data set with HeLa cells was 5.1%.

Broadly, the IC50 is the midpoint of a concentration-inhibition curve.

These data come from patent US20260216242A1, “ALPP-SPECIFIC VARIANT ANTIGEN BINDING MOLECULES” (ALMAC DISCOVERY LIMITED, priority 2022, published 2026).
